From patent publication US8969294B2 (Istituto di Recerche di Biologia Molecolare P. Angeletti …, priority 2008, dated 2015)
Blank lines part the entries; values can stand above or below the compound they belong to. Numbered stars: 1 amine (or outer) side, 2 acyl side, 3 side chain; on linkers, the order of the positions; unused ones are H or OH. Square brackets hold non-standard residues; d marks the D form. Side chains are listed from the residue outwards. Peptide text beside a SMILES is read from it. * marks the point of attachment. γGlu = O=C(O)[C@H](CCC(=O)[*:2])N[*:1]; Palmitoyl = CCCCCCCCCCCCCCCC(=O)*; Aib = CC(C)(N)C(=O)O

Target: glucagon receptor (Homo sapiens, UniProt P47871)
Sequence (P47871 26-477): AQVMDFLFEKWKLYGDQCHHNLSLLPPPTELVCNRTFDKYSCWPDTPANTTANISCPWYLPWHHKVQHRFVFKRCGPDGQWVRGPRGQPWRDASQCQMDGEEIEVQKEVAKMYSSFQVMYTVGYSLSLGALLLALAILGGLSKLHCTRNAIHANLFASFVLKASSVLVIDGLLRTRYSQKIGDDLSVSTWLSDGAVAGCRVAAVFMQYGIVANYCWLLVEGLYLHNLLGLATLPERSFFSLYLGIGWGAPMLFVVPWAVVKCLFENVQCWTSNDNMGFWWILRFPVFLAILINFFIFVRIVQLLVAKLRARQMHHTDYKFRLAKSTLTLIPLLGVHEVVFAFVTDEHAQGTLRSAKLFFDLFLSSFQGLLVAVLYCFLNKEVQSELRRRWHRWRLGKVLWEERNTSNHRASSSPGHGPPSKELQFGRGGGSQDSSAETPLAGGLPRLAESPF
Assay: Functional assay, cAMP synthesis: luciferase reporter in HEK293 cells co-transfected with glucagon receptor
[1] = EC50, Glucagon Receptor, Table 13
[2] = EC50 at Glucagon Receptor, Table 17
[3] = EC50 at Glucagon Receptor, Table 31
[4] = EC50 at the Glucagon receptor, Table 21
[5] = EC50 at Glucagon Receptor (20% human plasma), Table 28, 20% human plasma
[6] = EC50 at Glucagon Receptor, Table 28

EC50 (Glucagon Receptor EC50, Table 20): 2060 pM
Compound: CCCCCCCCCCCCCCCC(=O)N[C@@H](Cc1c[nH]c2ccccc12)C(=O)NCCCC[C@H](NC(=O)[C@H](CC(=O)O)NC(=O)[C@H](CO)NC(=O)[C@@H](NC(=O)[C@H](Cc1ccccc1)NC(=O)[C@@H](NC(=O)CNC(=O)[C@H](CCC(N)=O)NC(=O)C(C)(C)NC(=O)[C@@H](N)Cc1c[nH]cn1)[C@@H](C)O)[C@@H](C)O)C(=O)N[C@@H](CO)C(=O)N[C@@H](CCCCN)C(=O)N[C@@H](Cc1ccc(O)cc1)C(=O)N[C@@H](CC(C)C)C(=O)N[C@@H](CC(=O)O)C(=O)NC(C)(C)C(=O)N[C@@H](CCCNC(=N)N)C(=O)N[C@@H](CCCNC(=N)N)C(=O)N[C@@H](C)C(=O)NC(C)(C)C(=O)N[C@@H](CC(=O)O)C(=O)N[C@@H](Cc1ccccc1)C(=O)N[C@H](C(=O)N[C@@H](CS)C(=O)N[C@@H](Cc1c[nH]c2ccccc12)C(=O)N[C@@H](CC(C)C)C(=O)N[C@@H](CCSC)C(=O)N[C@@H](CC(N)=O)C(=O)N[C@H](C(N)=O)[C@@H](C)O)C(C)C (H-H[Aib]QGTFTSDK([Trp-Palmitoyl])SKYLD[Aib]RRA[Aib]DFVCWLMNT-NH2; N-terminus assumed)

EC50 [1]: 50 pM
EC50 [2]: 44 pM
Compound: CCCCCCCCCCCCCCCCCC(=O)N[C@@H](Cc1c[nH]c2ccccc12)C(=O)NCCCC[C@H](NC(=O)[C@H](CC(=O)O)NC(=O)[C@H](CO)NC(=O)[C@@H](NC(=O)[C@H](Cc1ccccc1)NC(=O)[C@@H](NC(=O)CNC(=O)[C@H](CCC(N)=O)NC(=O)[C@H](CO)NC(=O)[C@@H](N)Cc1c[nH]cn1)[C@@H](C)O)[C@@H](C)O)C(=O)N[C@@H](CO)C(=O)N[C@@H](CCCCN)C(=O)N[C@@H](Cc1ccc(O)cc1)C(=O)N[C@@H](CC(C)C)C(=O)N[C@@H](CC(=O)O)C(=O)N[C@@H](CCC(=O)O)C(=O)N[C@@H](CCCNC(=N)N)C(=O)N[C@@H](CCCNC(=N)N)C(=O)N[C@@H](C)C(=O)N[C@@H](CCCCN)C(=O)N[C@@H](CC(=O)O)C(=O)N[C@@H](Cc1ccccc1)C(=O)N[C@H](C(=O)N[C@@H](CCC(N)=O)C(=O)N[C@@H](Cc1c[nH]c2ccccc12)C(=O)N[C@@H](CC(C)C)C(=O)N[C@@H](CCSC)C(=O)N[C@@H](CC(N)=O)C(=O)N[C@H](C(N)=O)[C@@H](C)O)C(C)C [E16 K20-glucagon-NH2 with K^10—W—C18]

EC50 [3]: 3 pM
Compound: CCCCCCCCCCCCCCCC(=O)N[C@@H](CCC(=O)N[C@@H](CCC(=O)NCCCC[C@H](NC(=O)[C@H](CC(=O)O)NC(=O)[C@H](CO)NC(=O)[C@@H](NC(=O)[C@H](Cc1ccccc1)NC(=O)[C@@H](NC(=O)CNC(=O)[C@H](CCC(N)=O)NC(=O)C(C)(C)NC(=O)[C@@H](N)Cc1c[nH]cn1)[C@@H](C)O)[C@@H](C)O)C(=O)N[C@@H](CO)C(=O)N[C@@H](CCCCN)C(=O)N[C@@H](Cc1ccc(O)cc1)C(=O)N[C@@H](CC(C)C)C(=O)N[C@@H](CC(=O)O)C(=O)NC(C)(C)C(=O)N[C@@H](CCCNC(=N)N)C(=O)N[C@@H](C)C(=O)N[C@@H](C)C(=O)N[C@@H](CCC(N)=O)C(=O)N[C@@H](CC(=O)O)C(=O)N[C@@H](Cc1ccccc1)C(=O)N[C@H](C(=O)N[C@@H](CCC(N)=O)C(=O)N[C@@H](Cc1c[nH]c2ccccc12)C(=O)N[C@@H](CC(C)C)C(=O)N[C@@H](CCSC)C(=O)N[C@@H](CC(=O)O)C(=O)N[C@H](C(N)=O)[C@@H](C)O)C(C)C)C(=O)O)C(=O)O [compound 655] (H-H[Aib]QGTFTSDK([γGlu-γGlu-Palmitoyl])SKYLD[Aib]RAAQDFVQWLMDT-NH2; N-terminus assumed)

EC50 [1]: 400 pM
EC50 [2]: 236 pM
Compound: CCCCCCCCCCCCCCCC(=O)NCCCC[C@H](NC(=O)[C@H](CC(=O)O)NC(=O)[C@H](CO)NC(=O)[C@@H](NC(=O)[C@H](Cc1ccccc1)NC(=O)[C@@H](NC(=O)CNC(=O)[C@H](CCC(N)=O)NC(=O)[C@H](CO)NC(=O)[C@@H](N)Cc1c[nH]cn1)[C@@H](C)O)[C@@H](C)O)C(=O)N[C@@H](CO)C(=O)N[C@@H](CCCCN)C(=O)N[C@@H](Cc1ccc(O)cc1)C(=O)N[C@@H](CC(C)C)C(=O)N[C@@H](CC(=O)O)C(=O)N[C@@H](CCC(=O)O)C(=O)N[C@@H](CCCNC(=N)N)C(=O)N[C@@H](CCCNC(=N)N)C(=O)N[C@@H](C)C(=O)N[C@@H](CCCCN)C(=O)N[C@@H](CC(=O)O)C(=O)N[C@@H](Cc1ccccc1)C(=O)N[C@H](C(=O)N[C@@H](CCC(N)=O)C(=O)N[C@@H](Cc1c[nH]c2ccccc12)C(=O)N[C@@H](CC(C)C)C(=O)N[C@@H](CCSC)C(=O)N[C@@H](CC(N)=O)C(=O)N[C@H](C(N)=O)[C@@H](C)O)C(C)C [E16 K20-glucagon-NH2 with K^10—C16]

EC50 [4]: 44 pM
Compound: CCCCCCCCCCCCCC(=O)NCCCC[C@H](NC(=O)[C@H](CC(=O)O)NC(=O)[C@H](CO)NC(=O)[C@@H](NC(=O)[C@H](Cc1ccccc1)NC(=O)[C@@H](NC(=O)CNC(=O)[C@H](CCC(N)=O)NC(=O)C(C)(C)NC(=O)[C@@H](N)Cc1c[nH]cn1)[C@@H](C)O)[C@@H](C)O)C(=O)N[C@@H](CO)C(=O)N[C@@H](CCCCN)C(=O)N[C@@H](Cc1ccc(O)cc1)C(=O)N[C@@H](CC(C)C)C(=O)N[C@@H](CC(=O)O)C(=O)NC(C)(C)C(=O)N[C@@H](CCCNC(=N)N)C(=O)N[C@@H](CCCNC(=N)N)C(=O)N[C@@H](C)C(=O)N[C@@H](CCC(N)=O)C(=O)N[C@@H](CC(=O)O)C(=O)N[C@@H](Cc1ccccc1)C(=O)N[C@H](C(=O)N[C@@H](CCC(N)=O)C(=O)N[C@@H](Cc1c[nH]c2ccccc12)C(=O)N[C@@H](CC(C)C)C(=O)N[C@@H](CCSC)C(=O)N[C@@H](CC(N)=O)C(=O)N[C@H](C(N)=O)[C@@H](C)O)C(C)C [AIB2, AIB16, K10(C14) Gluc Amide]

EC50 [3]: 25 pM
Compound: CCCCCCCCCCCCCCCC(=O)N[C@@H](CCC(=O)NCCCC[C@H](NC(=O)[C@H](CC(=O)O)NC(=O)[C@H](CO)NC(=O)[C@@H](NC(=O)[C@H](Cc1ccccc1)NC(=O)[C@@H](NC(=O)CNC(=O)[C@H](CCC(N)=O)NC(=O)C(C)(C)NC(=O)[C@@H](N)Cc1c[nH]cn1)[C@@H](C)O)[C@@H](C)O)C(=O)N[C@@H](CO)C(=O)N[C@@H](CCCCN)C(=O)N[C@@H](Cc1ccc(O)cc1)C(=O)N[C@@H](CC(C)C)C(=O)N[C@@H](CC(=O)O)C(=O)N[C@@H](CCC(=O)O)C(=O)N[C@@H](CCC(N)=O)C(=O)N[C@@H](C)C(=O)N[C@@H](C)C(=O)N[C@@H](CCCCN)C(=O)N[C@@H](CCC(=O)O)C(=O)N[C@@H](Cc1ccccc1)C(=O)N[C@H](C(=O)N[C@@H](C)C(=O)N[C@@H](Cc1c[nH]c2ccccc12)C(=O)N[C@@H](CC(C)C)C(=O)N[C@@H](CCSC)C(=O)N[C@@H](CC(N)=O)C(=O)N[C@H](C(N)=O)[C@@H](C)O)[C@@H](C)CC)C(=O)O [compound 645]

EC50 [5]: 313 pM
EC50 [6]: 761 pM
Compound: CCCCCCCCCCCCCCCC(=O)NCCCC[C@H](NC(=O)[C@H](CC(=O)O)NC(=O)[C@H](CO)NC(=O)[C@@H](NC(=O)[C@H](Cc1ccccc1)NC(=O)[C@@H](NC(=O)CNC(=O)[C@H](CCC(N)=O)NC(=O)C(C)(C)NC(=O)[C@@H](N)Cc1c[nH]cn1)[C@@H](C)O)[C@@H](C)O)C(=O)N[C@@H](CO)C(=O)N[C@@H](CCCCN)C(=O)N[C@@H](Cc1ccc(O)cc1)C(=O)N[C@@H](CC(C)C)C(=O)N[C@@H](CC(=O)O)C(=O)NC(C)(C)C(=O)N[C@@H](CCCNC(=N)N)C(=O)N[C@@H](CCCNC(=N)N)C(=O)N[C@@H](C)C(=O)N[C@@H](CCC(N)=O)C(=O)N[C@@H](CC(=O)O)C(=O)N[C@@H](Cc1ccccc1)C(=O)N[C@H](C(=O)N[C@@H](CCC(N)=O)C(=O)N[C@@H](Cc1c[nH]c2ccccc12)C(=O)N[C@@H](CC(C)C)C(=O)N[C@@H](CCSC)C(=O)N[C@@H](CC(N)=O)C(=O)N[C@H](C(=O)N[C@@H](CCCCN)C(N)=O)[C@@H](C)O)C(C)C

EC50 [3]: 6 pM
Compound: CCCCCCCCCCCCCCCC(=O)N[C@@H](CCC(=O)NCCCC[C@H](NC(=O)[C@H](CC(=O)O)NC(=O)[C@H](CO)NC(=O)[C@@H](NC(=O)[C@H](Cc1ccccc1)NC(=O)[C@@H](NC(=O)CNC(=O)[C@H](CCC(N)=O)NC(=O)C(C)(C)NC(=O)[C@@H](N)Cc1cnc[nH]1)[C@@H](C)O)[C@@H](C)O)C(=O)N[C@@H](CO)C(=O)N[C@@H](CCCCN)C(=O)N[C@@H](Cc1ccc(O)cc1)C(=O)N[C@@H](CC(C)C)C(=O)N[C@@H](CC(=O)O)C(=O)NC(C)(C)C(=O)N[C@@H](CCCNC(=N)N)C(=O)N[C@@H](C)C(=O)N[C@@H](C)C(=O)N[C@@H](CCC(N)=O)C(=O)N[C@@H](CC(=O)O)C(=O)N[C@@H](Cc1ccccc1)C(=O)N[C@H](C(=O)N[C@@H](CCC(N)=O)C(=O)N[C@@H](Cc1c[nH]c2ccccc12)C(=O)N[C@@H](CC(C)C)C(=O)N[C@@H](CCSC)C(=O)N[C@@H](CC(=O)O)C(=O)N[C@H](C(N)=O)[C@@H](C)O)C(C)C)C(=O)O [compound 656]

EC50 [5]: 23 pM
EC50 [6]: 52 pM
EC50 [4]: 20 pM
Compound: CCCCCCCCCCCCCCCC(=O)NCCCC[C@H](NC(=O)[C@H](CC(=O)O)NC(=O)[C@H](CO)NC(=O)[C@@H](NC(=O)[C@H](Cc1ccccc1)NC(=O)[C@@H](NC(=O)CNC(=O)[C@H](CCC(N)=O)NC(=O)C(C)(C)NC(=O)[C@@H](N)Cc1c[nH]cn1)[C@@H](C)O)[C@@H](C)O)C(=O)N[C@@H](CO)C(=O)N[C@@H](CCCCN)C(=O)N[C@@H](Cc1ccc(O)cc1)C(=O)N[C@@H](CC(C)C)C(=O)N[C@@H](CC(=O)O)C(=O)NC(C)(C)C(=O)N[C@@H](CCCNC(=N)N)C(=O)N[C@@H](CCCNC(=N)N)C(=O)N[C@@H](C)C(=O)N[C@@H](CCC(N)=O)C(=O)N[C@@H](CC(=O)O)C(=O)N[C@@H](Cc1ccccc1)C(=O)N[C@H](C(=O)N[C@@H](CCC(N)=O)C(=O)N[C@@H](Cc1c[nH]c2ccccc12)C(=O)N[C@@H](CC(C)C)C(=O)N[C@@H](CCSC)C(=O)N[C@@H](CC(N)=O)C(=O)N[C@H](C(N)=O)[C@@H](C)O)C(C)C [AIB2, AIB16, K10(C16) Gluc Amide]
